Some test systems named below: HOP-62 NSCLC; RXF 393 renal; 786-0 renal; OVCAR-3 ovarian; SF-295 CNS; IGROV1 ovarian; HOP-92 NSCLC; MDA-MB-231 breast; DU-145 prostate; CAKI-1 renal.
What all share (assay): DTP human tumour cell line panel, 48 h

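Five concentrations, 48 hours, 96-well plates. Here, GI50 denotes the concentration required for 50% inhibition of growth. TGI marks complete inhibition of growth.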

Our source for the TGI and GI50 values is PubChem BioAssay (NCI).

By TGI is commonly meant the concentration giving total growth inhibition. A lower TGI goes with greater sensitivity of the cells. For orientation: GI50 means the concentration giving 50% growth inhibition.

`Cc1cccc2c(O)cc(=O)oc12`: the TGI in the experiment on HOP-62 NSCLC, with RXF 393 renal, in the experiment on 786-0 renal, in the experiment with OVCAR-3 ovarian, in the experiment on SF-295 CNS and in the experiment on IGROV1 ovarian was over 100 µM each time.

Turning to `COc1cc(-c2csc(NC(=O)Nc3cc(Cl)cc(Cl)c3)n2)cc(OC)c1OC`, the GI50 in the experiment on RXF 393 renal is 1.73 µM; in the experiment on HOP-92 NSCLC, 1.7 µM; in the experiment on 786-0 renal, 1.84 µM; in the experiment on OVCAR-3 ovarian, 1.8 µM; with SF-295 CNS, 1.55 µM; in the experiment with MDA-MB-231 breast, 1.92 µM. The values for the GI50 with IGROV1 ovarian and in the experiment on DU-145 prostate were 2.03 µM and 1.77 µM, respectively. The TGI amounted to 3.76 µM in the experiment on RXF 393 renal; 3.73 µM in the experiment with HOP-92 NSCLC; 3.33 µM with 786-0 renal; 3.26 µM with OVCAR-3 ovarian; 3.01 µM in the experiment on SF-295 CNS; 4.12 µM with MDA-MB-231 breast. Moreover, the TGI came to 4.04 µM in the experiment on IGROV1 ovarian and 3.35 µM in the experiment on DU-145 prostate.

With `CC(=O)N/C(=C\c1ccc(Cc2nc3c([nH]2)C(=O)c2ccccc2C3=O)cc1)c1nc2c([nH]1)C(=O)c1ccccc1C2=O`, the TGI in the experiment on CAKI-1 renal, in the experiment with HOP-62 NSCLC, with RXF 393 renal, with HOP-92 NSCLC, with 786-0 renal and in the experiment on OVCAR-3 ovarian was over 100 µM throughout. Further, the TGI in the experiment on SF-295 CNS and in the experiment on IGROV1 ovarian was over 100 µM in each case.

`O=NN(CCCl)C(=O)NC1CCC(CC2CCC(NC(=O)N(CCCl)N=O)CC2)CC1` (stereo not given): the TGI in the experiment with CAKI-1 renal was over 100 µM; with HOP-62 NSCLC it was 82.3 µM; in the experiment on RXF 393 renal it was 44.6 µM; in the experiment with HOP-92 NSCLC, over 76.6 µM; with 786-0 renal it was 69.9 µM; in the experiment with OVCAR-3 ovarian, over 67.4 µM. Besides, the TGI is over 79.2 µM in the experiment on SF-295 CNS and over 67.8 µM with IGROV1 ovarian.

Turning to `CC(C)=CC(=O)Cc1nc2ccc([N+](=O)[O-])cc2[nH]c1=O`, the total growth inhibition concentration (TGI) in the experiment with CAKI-1 renal, in the experiment with HOP-62 NSCLC, in the experiment on RXF 393 renal, in the experiment on HOP-92 NSCLC, with 786-0 renal and with OVCAR-3 ovarian was over 100 µM in each case. Further, the TGI in the experiment with SF-295 CNS and in the experiment on IGROV1 ovarian was over 100 µM each time.

Consider `CN(C)CC/C(=N\Nc1ccc(Cl)cc1Cl)c1ccccc1`, for which the TGI in the experiment with HOP-62 NSCLC turned out to be 30.3 µM; in the experiment on RXF 393 renal it was 20.6 µM; in the experiment with 786-0 renal, 27.5 µM; in the experiment with OVCAR-3 ovarian, 27 µM; with SF-295 CNS it was 32.9 µM; in the experiment with IGROV1 ovarian it was 22.8 µM.

Regarding `N#CCC(=O)N1CCCCCCC1`, the concentration for total growth inhibition (TGI) with CAKI-1 renal, in the experiment with HOP-62 NSCLC, in the experiment on RXF 393 renal, with 786-0 renal, in the experiment on SF-295 CNS and with IGROV1 ovarian was over 100 µM in each case.

`Cc1ccc(C(=O)CC2=Nc3nnc(CCCCCCCc4nnc5n4C(=O)C(CC(=O)c4ccc(C)cc4)=N5)n3C2=O)cc1`: the TGI in the experiment with CAKI-1 renal, with HOP-62 NSCLC, with RXF 393 renal, with 786-0 renal, with OVCAR-3 ovarian and in the experiment on SF-295 CNS was over 100 µM in each case. This compound also registered a concentration for total growth inhibition (TGI) in the experiment on IGROV1 ovarian of over 100 µM.

As to `CCC[CH2][Sn]1([CH2]CCC)[O]CC(C)[O]1` (stereo not given), the GI50 in the experiment with CAKI-1 renal is 0.24 µM; in the experiment on HOP-62 NSCLC, 2.63 µM; in the experiment on RXF 393 renal, 1.46 µM; in the experiment on HOP-92 NSCLC it was 1.16 µM; in the experiment with 786-0 renal it was 1.48 µM; with OVCAR-3 ovarian, 1.37 µM. Besides, the GI50 with SF-295 CNS is 1.4 µM; with IGROV1 ovarian, 1.88 µM. In addition, the TGI in the experiment with CAKI-1 renal is 1.23 µM; in the experiment with HOP-62 NSCLC, 6.62 µM; in the experiment with RXF 393 renal, 2.99 µM; in the experiment with HOP-92 NSCLC, 2.52 µM; in the experiment on 786-0 renal, 2.84 µM; with OVCAR-3 ovarian, 2.67 µM. In addition, the TGI in the experiment on SF-295 CNS turned out to be 2.74 µM; in the experiment on IGROV1 ovarian, 3.94 µM.

For `O=C(/C=C\c1cccc2ccccc12)c1cccc2ccccc12`, the TGI in the experiment on CAKI-1 renal worked out at 32.4 µM; in the experiment on HOP-62 NSCLC, 39.7 µM; in the experiment with RXF 393 renal it was 20.1 µM; in the experiment on 786-0 renal it was 17.4 µM; with OVCAR-3 ovarian it was 25.3 µM; with SF-295 CNS it was 30.2 µM. In the experiment with IGROV1 ovarian, this compound registered a TGI of 25.9 µM. Also, the GI50 is 7.46 µM with RXF 393 renal and 12.5 µM in the experiment with OVCAR-3 ovarian.

Turning to `O=[N+]([O-])c1ccc(C=NC23CC4CC(CC(C4)C2)C3)cc1`, the TGI in the experiment with CAKI-1 renal, with HOP-62 NSCLC, in the experiment with RXF 393 renal, with HOP-92 NSCLC, in the experiment with 786-0 renal and in the experiment with OVCAR-3 ovarian was over 100 µM throughout. Also, the TGI in the experiment on SF-295 CNS and in the experiment on IGROV1 ovarian was over 100 µM throughout.

In the case of `CN1C/C(=C\C=C\c2ccccc2)C(=O)/C(=C/C=C/c2ccccc2)C1`, the TGI in the experiment on CAKI-1 renal, in the experiment on HOP-62 NSCLC, in the experiment with RXF 393 renal, in the experiment on 786-0 renal, in the experiment on OVCAR-3 ovarian and in the experiment with SF-295 CNS was over 100 µM in each case. The compound further displayed a TGI in the experiment with IGROV1 ovarian of over 100 µM.

On to `CC1(C)N=C(c2ccccn2)C(c2ccccn2)=NC1(C)C`, for which the TGI in the experiment on CAKI-1 renal, with RXF 393 renal, in the experiment with HOP-92 NSCLC, in the experiment on 786-0 renal, in the experiment with OVCAR-3 ovarian and with SF-295 CNS was over 100 µM in each case. Also, in the experiment on IGROV1 ovarian, the TGI is over 100 µM.

As to `CCN(CC)CCNC(=O)c1cccc2nc3ccccc3nc12`, the TGI is over 100 µM in the experiment on CAKI-1 renal; 33.8 µM in the experiment on HOP-62 NSCLC; 28.2 µM in the experiment with RXF 393 renal; over 73.4 µM with HOP-92 NSCLC; over 100 µM in the experiment on 786-0 renal; over 50 µM in the experiment with OVCAR-3 ovarian. Further, the TGI in the experiment with SF-295 CNS is over 38.1 µM; in the experiment with IGROV1 ovarian it was over 100 µM.
